Results from ChEMBL document CHEMBL1147101, “Development and persistence of antimicrobial resistance in Pseudomonas aeruginosa: a longitudinal observation in mechanically ventilated patients” (Antimicrob Agents Chemother, 2007).
The source made the active and inactive calls. The calls are words filed in the database; no cut-off is given here.

What was measured:
Type in all cases: functional, organism-based
Details in all cases: Trachea
Pseudomonas aeruginosa [1] = experiment: Antimicrobial activity against Pseudomonas aeruginosa 65.38-3 tracheal isolates from mechanically ventilated tuberculosis patient
Pseudomonas aeruginosa [2] = experiment: Antimicrobial activity against Pseudomonas aeruginosa 65.38-4 tracheal isolates from mechanically ventilated tuberculosis patient
Pseudomonas aeruginosa [3] = experiment: Antimicrobial activity against Pseudomonas aeruginosa 1A9 tracheal isolates from mechanically ventilated tuberculosis patient
Pseudomonas aeruginosa [4] = experiment: Antimicrobial activity against Pseudomonas aeruginosa 1B9 tracheal isolates from mechanically ventilated tuberculosis patient
Pseudomonas aeruginosa [5] = experiment: Antimicrobial activity against Pseudomonas aeruginosa 2A1 tracheal isolates from mechanically ventilated tuberculosis patient
Pseudomonas aeruginosa [6] = experiment: Antimicrobial activity against Pseudomonas aeruginosa 2C1 tracheal isolates from mechanically ventilated tuberculosis patient
Pseudomonas aeruginosa [7] = experiment: Antimicrobial activity against Pseudomonas aeruginosa 2A2 tracheal isolates from mechanically ventilated tuberculosis patient
Pseudomonas aeruginosa [8] = experiment: Antimicrobial activity against Pseudomonas aeruginosa 2C2 tracheal isolates from mechanically ventilated tuberculosis patient
Pseudomonas aeruginosa [9] = experiment: Antimicrobial activity against Pseudomonas aeruginosa 2A3 tracheal isolates from mechanically ventilated tuberculosis patient
Pseudomonas aeruginosa [10] = experiment: Antimicrobial activity against Pseudomonas aeruginosa 2A5 tracheal isolates from mechanically ventilated tuberculosis patient
Pseudomonas aeruginosa [11] = experiment: Antimicrobial activity against Pseudomonas aeruginosa 2B5 tracheal isolates from mechanically ventilated tuberculosis patient
Pseudomonas aeruginosa [12] = experiment: Antimicrobial activity against Pseudomonas aeruginosa 2A6 tracheal isolates from mechanically ventilated tuberculosis patient
Pseudomonas aeruginosa [13] = experiment: Antimicrobial activity against Pseudomonas aeruginosa 2F6 tracheal isolates from mechanically ventilated tuberculosis patient
Pseudomonas aeruginosa [14] = experiment: Antimicrobial activity against Pseudomonas aeruginosa 2A7 tracheal isolates from mechanically ventilated tuberculosis patient
Pseudomonas aeruginosa [15] = experiment: Antimicrobial activity against Pseudomonas aeruginosa 2A9 tracheal isolates from mechanically ventilated tuberculosis patient
Pseudomonas aeruginosa [16] = experiment: Antimicrobial activity against Pseudomonas aeruginosa 3B1 tracheal isolates from mechanically ventilated tuberculosis patient
Pseudomonas aeruginosa [17] = experiment: Antimicrobial activity against Pseudomonas aeruginosa 65.68-1 tracheal isolates from mechanically ventilated tuberculosis patient
Pseudomonas aeruginosa [18] = experiment: Antimicrobial activity against Pseudomonas aeruginosa 65.68-2 tracheal isolates from mechanically ventilated tuberculosis patient
Pseudomonas aeruginosa [19] = experiment: Antimicrobial activity against Pseudomonas aeruginosa 65.68-3 tracheal isolates from mechanically ventilated tuberculosis patient
Pseudomonas aeruginosa [20] = experiment: Antimicrobial activity against Pseudomonas aeruginosa 65.68-4 tracheal isolates from mechanically ventilated tuberculosis patient
Pseudomonas aeruginosa [21] = experiment: Antimicrobial activity against Pseudomonas aeruginosa P21.21 tracheal isolates from mechanically ventilated tuberculosis patient
Pseudomonas aeruginosa [22] = experiment: Antimicrobial activity against Pseudomonas aeruginosa 65.18-1 tracheal isolates from mechanically ventilated tuberculosis patient
Pseudomonas aeruginosa [23] = experiment: Antimicrobial activity against Pseudomonas aeruginosa 65.18-2 tracheal isolates from mechanically ventilated tuberculosis patient
Pseudomonas aeruginosa [24] = experiment: Antimicrobial activity against Pseudomonas aeruginosa 65.18-3 tracheal isolates from mechanically ventilated tuberculosis patient
Pseudomonas aeruginosa [25] = experiment: Antimicrobial activity against Pseudomonas aeruginosa 65.18-4 tracheal isolates from mechanically ventilated tuberculosis patient
Pseudomonas aeruginosa [26] = experiment: Antimicrobial activity against Pseudomonas aeruginosa P21.23 tracheal isolates from mechanically ventilated tuberculosis patient
Pseudomonas aeruginosa [27] = experiment: Antimicrobial activity against Pseudomonas aeruginosa IA5 tracheal isolates from mechanically ventilated tuberculosis patient
Pseudomonas aeruginosa [28] = experiment: Antimicrobial activity against Pseudomonas aeruginosa IC7 tracheal isolates from mechanically ventilated tuberculosis patient
Pseudomonas aeruginosa [29] = experiment: Antimicrobial activity against Pseudomonas aeruginosa ID7 tracheal isolates from mechanically ventilated tuberculosis patient
Pseudomonas aeruginosa [30] = experiment: Antimicrobial activity against Pseudomonas aeruginosa 65.33-1 tracheal isolates from mechanically ventilated tuberculosis patient
Pseudomonas aeruginosa [31] = experiment: Antimicrobial activity against Pseudomonas aeruginosa 65.33-2 tracheal isolates from mechanically ventilated tuberculosis patient
Pseudomonas aeruginosa [32] = experiment: Antimicrobial activity against Pseudomonas aeruginosa 65.33-3 tracheal isolates from mechanically ventilated tuberculosis patient
Pseudomonas aeruginosa [33] = experiment: Antimicrobial activity against Pseudomonas aeruginosa 65.33-4 tracheal isolates from mechanically ventilated tuberculosis patient
Pseudomonas aeruginosa [34] = experiment: Antimicrobial activity against Pseudomonas aeruginosa 65.36-1 tracheal isolates from mechanically ventilated tuberculosis patient
Pseudomonas aeruginosa [35] = experiment: Antimicrobial activity against Pseudomonas aeruginosa 65.36-2 tracheal isolates from mechanically ventilated tuberculosis patient
Pseudomonas aeruginosa [36] = experiment: Antimicrobial activity against Pseudomonas aeruginosa 65.36-3 tracheal isolates from mechanically ventilated tuberculosis patient
Pseudomonas aeruginosa [37] = experiment: Antimicrobial activity against Pseudomonas aeruginosa 65.36-4 tracheal isolates from mechanically ventilated tuberculosis patient
Pseudomonas aeruginosa [38] = experiment: Antimicrobial activity against Pseudomonas aeruginosa 65.38-1 tracheal isolates from mechanically ventilated tuberculosis patient
Pseudomonas aeruginosa [39] = experiment: Antimicrobial activity against Pseudomonas aeruginosa 65.38-2 tracheal isolates from mechanically ventilated tuberculosis patient
Pseudomonas aeruginosa [40] = experiment: Antimicrobial activity against Pseudomonas aeruginosa 1C9 tracheal isolates from mechanically ventilated tuberculosis patient
Pseudomonas aeruginosa [41] = experiment: Antimicrobial activity against Pseudomonas aeruginosa 15H5 tracheal isolates from mechanically ventilated chronic respiratory insufficiency patient

Compound | Activity (Pseudomonas aeruginosa [1]) | Activity (Pseudomonas aeruginosa [2]) | Activity (Pseudomonas aeruginosa [3]) | Activity (Pseudomonas aeruginosa [4]) | Activity (Pseudomonas aeruginosa [5]) | Activity (Pseudomonas aeruginosa [6]) | Activity (Pseudomonas aeruginosa [7]) | Activity (Pseudomonas aeruginosa [9]) | Activity (Pseudomonas aeruginosa [10]) | Activity (Pseudomonas aeruginosa [13]) | Activity (Pseudomonas aeruginosa [14]) | Activity (Pseudomonas aeruginosa [15]) | Activity (Pseudomonas aeruginosa [16]) | Activity (Pseudomonas aeruginosa [17]) | Activity (Pseudomonas aeruginosa [18]) | Activity (Pseudomonas aeruginosa [21]) | Activity (Pseudomonas aeruginosa [24]) | Activity (Pseudomonas aeruginosa [26]) | Activity (Pseudomonas aeruginosa [27]) | Activity (Pseudomonas aeruginosa [28]) | also measured
CCN1CCN(C(=O)N[C@@H](C(=O)N[C@@H]2C(=O)N3[C@@H]2SC(C)(C)[C@@H]3C(=O)O)c2ccccc2)C(=O)C1=O | inactive | Active | inactive | inactive | inactive | inactive | Active | Active | Active | inactive | inactive | inactive | Active | Active | Active | Active | Active | Active | Active | Active | Activity (Pseudomonas aeruginosa [8]): Active; Activity (Pseudomonas aeruginosa [11]): Active; Activity (Pseudomonas aeruginosa [12]): inactive; Activity (Pseudomonas aeruginosa [19]): Active; Activity (Pseudomonas aeruginosa [20]): Active; Activity (Pseudomonas aeruginosa [22]): Active; Activity (Pseudomonas aeruginosa [23]): Active; Activity (Pseudomonas aeruginosa [25]): Active; Activity (Pseudomonas aeruginosa [29]): Active; Activity (Pseudomonas aeruginosa [30]): Active; Activity (Pseudomonas aeruginosa [31]): Active; Activity (Pseudomonas aeruginosa [32]): inactive; Activity (Pseudomonas aeruginosa [33]): Active; Activity (Pseudomonas aeruginosa [34]): Active; Activity (Pseudomonas aeruginosa [35]): Active; Activity (Pseudomonas aeruginosa [36]): Active; Activity (Pseudomonas aeruginosa [37]): inactive; Activity (Pseudomonas aeruginosa [38]): inactive; Activity (Pseudomonas aeruginosa [39]): inactive
C[C@@H](O)[C@H]1C(=O)N2C(C(=O)O)=C(S[C@@H]3CN[C@H](C(=O)N(C)C)C3)[C@H](C)[C@H]12 | inactive | inactive | inactive | inactive | inactive | inactive | inactive | Active | Active | inactive | inactive | inactive | Active | inactive | inactive | Active | Active | Active | Active | Active | Activity (Pseudomonas aeruginosa [12]): inactive; Activity (Pseudomonas aeruginosa [19]): inactive; Activity (Pseudomonas aeruginosa [20]): inactive; Activity (Pseudomonas aeruginosa [22]): Active; Activity (Pseudomonas aeruginosa [31]): inactive; Activity (Pseudomonas aeruginosa [32]): inactive; Activity (Pseudomonas aeruginosa [36]): inactive; Activity (Pseudomonas aeruginosa [37]): inactive; Activity (Pseudomonas aeruginosa [38]): inactive; Activity (Pseudomonas aeruginosa [39]): inactive
CCN[C@@H]1C[C@H](N)[C@@H](O[C@H]2OC(CN)=CC[C@H]2N)[C@H](O)[C@H]1O[C@H]1OC[C@](C)(O)[C@H](NC)[C@H]1O | inactive | inactive | Active | inactive | Active | inactive | Active | Active | Active | inactive | inactive | inactive | Active | Active | inactive | Active | Active | Active | Active | Active | Activity (Pseudomonas aeruginosa [8]): Active; Activity (Pseudomonas aeruginosa [23]): Active; Activity (Pseudomonas aeruginosa [25]): Active; Activity (Pseudomonas aeruginosa [30]): Active; Activity (Pseudomonas aeruginosa [37]): inactive; Activity (Pseudomonas aeruginosa [38]): inactive; Activity (Pseudomonas aeruginosa [39]): inactive
NC[C@H]1O[C@H](O[C@H]2[C@H](O)[C@@H](O[C@H]3O[C@H](CO)[C@@H](O)[C@H](N)[C@H]3O)[C@H](N)C[C@@H]2N)[C@H](N)C[C@@H]1O | Active | Active | Active |  | Active | Active | Active | Active | Active | Active | Active | Active | Active | Active | Active | Active | Active | Active | Active | Active | Activity (Pseudomonas aeruginosa [40]): Active; Activity (Pseudomonas aeruginosa [8]): Active; Activity (Pseudomonas aeruginosa [11]): Active; Activity (Pseudomonas aeruginosa [12]): Active; Activity (Pseudomonas aeruginosa [19]): Active; Activity (Pseudomonas aeruginosa [20]): Active; Activity (Pseudomonas aeruginosa [41]): Active; Activity (Pseudomonas aeruginosa [22]): Active; Activity (Pseudomonas aeruginosa [23]): Active; Activity (Pseudomonas aeruginosa [25]): Active; Activity (Pseudomonas aeruginosa [30]): Active; Activity (Pseudomonas aeruginosa [31]): Active; Activity (Pseudomonas aeruginosa [32]): Active; Activity (Pseudomonas aeruginosa [33]): Active; Activity (Pseudomonas aeruginosa [34]): Active; Activity (Pseudomonas aeruginosa [35]): Active; Activity (Pseudomonas aeruginosa [36]): Active; Activity (Pseudomonas aeruginosa [37]): Active; Activity (Pseudomonas aeruginosa [39]): Active
C[C@H]1[C@H](NC(=O)/C(=N\OC(C)(C)C(=O)O)c2csc(N)n2)C(=O)N1S(=O)(=O)O | inactive |  | inactive | inactive |  | inactive | Active | Active | Active | inactive | inactive | inactive | Active | Active | Active | Active | Active | Active | Active | Active | Activity (Pseudomonas aeruginosa [8]): Active; Activity (Pseudomonas aeruginosa [11]): Active; Activity (Pseudomonas aeruginosa [12]): inactive; Activity (Pseudomonas aeruginosa [19]): Active; Activity (Pseudomonas aeruginosa [20]): Active; Activity (Pseudomonas aeruginosa [22]): Active; Activity (Pseudomonas aeruginosa [23]): Active; Activity (Pseudomonas aeruginosa [25]): Active; Activity (Pseudomonas aeruginosa [30]): Active; Activity (Pseudomonas aeruginosa [33]): Active; Activity (Pseudomonas aeruginosa [38]): inactive
